Test results taken from patent publication US7579343B2, “Pyrrolo-thiazines and processes for the preparation and use thereof” (Board of Trustees of Michigan State University, priority 2005, dated 2009).

Tests used:
β-ribosidase [1] = test: β-ribosidase inhibition assay with DHF-riboside substrate, bacterial lysate; type: biochemical, Salmonella sp.35664; details: for threshold value for the inhibitor concentration over which no inhibition is observed: lysate of Salmonella sp.35664, DHF-riboside, over a 24 hour period
Description: (§1) The hydrolysis of β-riboside under catalysis by β-ribosidases features an oxocarbenium ion transition state, similar to nucleoside hydrolases, nucleoside phosphorylases and related enzymes. The β-ribosidase inhibitory properties of 6, 7 and 8 were evaluated using 3′,4′-dihydroxyflavone-4′-β-D-ribofuranoside 16 (DHF-riboside) as the substrate and bacterial lysates or whole cells as the source of β-ribosidase. The hydrolysis of this chromogenic substrate can be catalyzed by β-ribosidases to release 3′,4′-dihydroxyflavone, which forms a highly colored chelate with iron.^23
(§2) Compounds 6-8 were evaluated for their ability to inhibit the action of β-ribosidases produced by Gram negative bacteria. There are no commercially available β-ribosidases and it is the usual course to use intrinsic ribosidase activities from actual bacteria or bacterial cell lysates. Ribosidase inhibition assays were performed using Salmonella sp.35664 to produce β-ribosidase enzymes. Both whole cells and lysed bacteria were tested. Ribosidase activity is indicated by a purple color formed by complexation of the freed phenol with ferric ions. FIGS. 7A and 7B are (7A) absorbance of the assay mixture produced by a lysate of Salmonella sp.35664 with 3′,4′-dihydroxyflavone-4′-β-D-ribofuranoside in the presence of 6 in concentrations from 0 to 15 μg/μL over a 24 hour period. (7B) Absorbance of the assay mixture in the presence of 7. Note that the differences in inhibition between the two are marginal at higher inhibitor concentrations. Note also that in both cases there is a threshold value of 0.9 μg/μL for the inhibitor concentration over which no inhibition is observed. The more inhibition of the enzyme, the less cleavage of the substrate.
(§3) Inhibitory potency was determined by spectrophotometrically measuring the residual hydrolytic activities of the bacterial produced β-ribosidase 2. The bacterium used to produce β-ribosidase was Salmonella sp.35664, both whole cell and lysed strains. 3′,4′-Dihydroxyflavone-4′-β-D-ribofuranoside 15 (DHF-riboside) was used as substrate. The assay was performed in a PBS buffer at pH 7.0, 37° C. Serial dilutions were made of the inhibitors to a final concentration of 0.2μg/μL to 15μg/μL in each assay solution. The strain was grown to mid exponential phase and removed from the media and rediluted in PBS buffer. Inhibition studies were performed by adding each strain to the respective buffer solutions along with DHF-riboside, ferric ammonium citrate and inhibitors. For compound 6 and 7, 10% DMSO solution was used to increase the solubility. The solutions were incubated at 37° C. and the absorbance of the complex formed between released 3′,4′-dihydroxyflavone and iron was determined at 387 nm at time 15 min, 30 min, 45 min, 60 min, 75 min, 90 min, 105 min, 2 hours, 2.5 hours, 3.0. hours, 4.0. hours, 4.5 hours, 5 hours, 20 hours, and 24 hours.

β-ribosidase [2] = test: β-ribosidase inhibition assay with DHF-riboside substrate, whole cells; type: cell-based, Salmonella sp.35664
Description: as §1, §2
In the case of compound 7, no inhibition is also observed for the 3.8 μg/μL inhibitor concentration. There are only minor differences for the inhibitory properties of the two compounds at the higher concentrations.
as §3

E. faecalis 29212 = test: antibacterial activity, standard MIC testing procedure; type: cell-based
Description: (§4) It was assayed according to the standard MIC testing procedure for antimicrobials.

S. aureus 43300 = test: as above; type: cell-based
Description: as §4

E. faecalis 51299 = test: as above; type: cell-based
Description: as §4

SMILES | β-ribosidase inhibition activity (in words) (β-ribosidase [1]; lysate) | β-ribosidase inhibition activity (in words) (β-ribosidase [2]; whole cell) | inhibition at 0.49 µg/mL (E. faecalis 29212; Enterococcus faecalis, 29212, 0.49 μg/ml, read-out: inhibition of bacterial growth) | antibacterial activity (in words) (E. faecalis 29212; initial dilute concentration) | inhibition at 0.49 µg/mL (S. aureus 43300; Staphylococcus aureus, 43300, 0.49 μg/ml, read-out: inhibition of bacterial growth) | antibacterial activity (in words) (S. aureus 43300; initial dilute concentration) | inhibition at 0.49 µg/mL (E. faecalis 51299; Enterococcus faecalis, 51299, 0.49 μg/ml, read-out: inhibition of bacterial growth) | antibacterial activity (in words) (E. faecalis 51299; initial dilute concentration) | concentration at which fifty percent inhibition was observed (β-ribosidase [1]; lysate) | threshold value for the inhibitor concentration over which no inhibition is observed (β-ribosidase [1]) | inhibition of β-ribosidases (β-ribosidase [1]; lysate, 15 μg/μL (67 mM), at 24 hours) | concentration at which fifty percent inhibition was observed (β-ribosidase [2]; whole cell) | inhibition of β-ribosidases (β-ribosidase [2]; whole cell, 15 μg/μL (67 mM), at 24 hours) | inhibition at 3.8 μg/μL inhibitor concentration (β-ribosidase [2]; whole cells, 3.8 μg/μL)
O[C@H]1[C@@H](O)CN2CCSC[C@@H]12 [Compound 8, 7(S)-8(R),9(S)-dihydroxy-hexahydro-1H-pyrrolo-[1,4]-thiazine] | no significant inhibition | no significant inhibition | 50% | good inhibition | 70% | good inhibition | 50% | good inhibition | – | – | – | – | – | –
O[C@H]1[C@@H](O)CN2c3ccccc3SC[C@@H]12 [Compound 6, 2(S),3(R),4(S)-dihydroxy-2,3,3a,4-tetrahydro-1H-pyrrolo-[2,1-c][1,4]benzothiazine] | – | good inhibitory activity | – | – | – | – | – | – | 7.5 µg/µL | 0.9 µg/µL | About 70% | 7.5 µg/µL | About 70% | –
O[C@@H]1[C@H]2CSc3ccccc3N2C[C@@H]1O [Compound 7, 2(R)-3(R),4(S)-dihydroxy-2,3,3a,4-tetrahydro-1H-pyrrolo-[2,1-c][1,4]benzothiazine] | comparable | comparable | – | – | – | – | – | – | – | 0.9 µg/µL | – | – | – | no inhibition
